The values that follow come from US12421253B2 (Mirati Therapeutics, Inc., priority 2020, dated 2025).

One test deals with T1, KRas^G12R (Homo sapiens, UniProt P01116, G12R).
T1 construct: […]; biotin (biotinylated); purchased Accelegan Inc
As to the kind of experiment: KRas binding assay (TR-FRET displacement of Cy5 labelled tracer). On the technique in general: TR-FRET usually uses a lanthanide donor and a delayed reading to cut background.

A further test has as its target T2, KRas^G12D (Homo sapiens, UniProt P01116, G12D).
T2 construct: […]; biotin (biotinylated); purchased Accelegan Inc
Described as above.

The next test concerns PSN1 cells, pERK. As to the kind of experiment: Inhibition of KRas phosphorylation of ERK (Cisbio HTRF Advanced pERK assay). To be noted: Homo sapiens, PSN1, 3 h, read-out: Inhibition (HTRF IC50 nM) of KRas-mediated Phosphorylation of ERK, PSN1. The format is cell-based. The gist of the method:
(§1)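 pERK measured by HTRF in lysates from cells treated 3 h with compound, 10 uM top, 3-fold steps, 10 doses, 0.8% DMSO final. Cells (6,000/well, RPMI 10% FBS) had been plated overnight at 37 °C; 0.2 uM trametinib defined minimum signal; antibody detection 2 h at room temperature.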

The next test has as its system MKN1 cells, pERK. The description is as above. The settings on record: Homo sapiens, MKN-1, 3 h, read-out: Inhibition (HTRF IC50 nM) of KRas-mediated Phosphorylation of ERK, MKN1. The format is cell-based. The gist of the method:
as §1

Test [1] relates to NCI-H460 (Q61H) cells, phospho-ERK. As to the kind of experiment: Inhibition of KRas-mediated phosphorylation of ERK (phospho-ERK/GAPDH antibody detection, LI-COR). The class given is cell-based. To be noted: Homo sapiens, 3 hours. The protocol: (§2) AsPC-1 (G12D, ATCC CRL-1682), A549 (G12S, ATCC CCL-185), HCT116 (G13D, ATCC CCL-247) cells were grown in DMEM medium supplemented with 10% fetal bovine serum and Penicillin/Streptomycin. NCI-H358 (G12C, ATCC CRL-5807), NCI-H460 (Q61H, ATCC HTB-117), NCI-H727 (G12V, ATCC CRL-5815), MKN1 (WTdep, JCRB JCRB0252), PSN-1 (G12R, ATCC CRM-CRL-3211) cells were grown in RPMI medium supplemented with 10% fetal bovine serum, 10 mM HEPES, 10 mM Sodium Pyruvate, and Penicillin/Streptomycin. Cells were plated in black well clear bottom tissue culture treated 96 well plates (Corning, 3904) at a density of 20,000 cells/well and allowed to attach for 12-14 hours. Diluted compounds were then added in a final concentration of 0.5% DMSO. After 3 hours, 50 μL of 4.0% formaldehyde was added and the plates incubated at room temperature for 20 minutes. The plates were then dumped and permeabilized with 150 μL of ice cold 100% methanol for 10 minutes. Non-specific antibody binding to the plates was blocked using 100 μL Odyssey blocking buffer (LI-COR Biosciences, 927-60010) for 1 hour at room temperature.
(§3) The amount of phospho-ERK was determined using an antibody specific for the phosphorylated form of ERK and compared to the amount of GAPDH. Primary antibodies used for the detection were added as follows: Phospho-ERK (Cell Signaling CS-9101) diluted 1:500 and GAPDH (Millipore MAB374) diluted 1:5000 in Odyssey blocking buffer+0.05% Tween 20. The plates were incubated overnight at 4 C. The plates were washed 3× with 150 uL PBS+0.1% Tween 20.
(§4) Secondary antibodies used to visualize primary antibodies were added as follows: Goat Anti-Rabbit-800 (LI-COR, 926-32211) and Goat Anti-Mouse-680 (LI-COR, 926-68070) diluted 1:800 both in Odyssey blocking buffer+0.05% Tween 20 and were incubated for 1 hour at room temperature. The plates were washed 3× with 150 uL PBS+[…]. Plates were imaged dry on a Li—COR Odyssey CLX plate reader.
(§5) The phospho-ERK (Thr202/Tyr204) signal was normalized to the GAPDH signal for each well and percent of DMSO control values were calculated. IC50 values were generated using a 4-parameter fit of the dose response curve.

Test [2] concerns NCI-H727 (G12V) cells, phospho-ERK. Described as above. The class given is cell-based. The settings on record: Homo sapiens, 3 hours. The protocol: as §2, §3, §4, §5
The test system of test [3] is AsPC-1 (G12D) cells, phospho-ERK. Described as above. To be noted: Homo sapiens, ASPC1, 3 hours. The format is cell-based. The protocol:
as §2, §3, §4, §5

In a further test the target is T3, KRas^G12V (Homo sapiens, UniProt P01116, G12V).
T3 construct: […]; biotin (biotinylated); purchased Accelegan Inc
T3 sequence (P01116 1-169 isoform P01116-2 G12V): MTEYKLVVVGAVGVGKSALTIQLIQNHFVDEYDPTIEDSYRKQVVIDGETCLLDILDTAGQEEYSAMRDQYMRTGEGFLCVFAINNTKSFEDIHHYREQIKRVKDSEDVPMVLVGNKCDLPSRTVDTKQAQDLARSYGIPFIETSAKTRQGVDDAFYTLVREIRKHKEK
As to the kind of experiment: KRas binding assay (TR-FRET displacement of Cy5 labelled tracer).

For a further test, the target named is T4, KRas^G12A (Homo sapiens, UniProt P01116, G12A).
T4 construct: […]; biotin (biotinylated); purchased Accelegan Inc
T4 sequence (P01116 1-169 isoform P01116-2 G12A): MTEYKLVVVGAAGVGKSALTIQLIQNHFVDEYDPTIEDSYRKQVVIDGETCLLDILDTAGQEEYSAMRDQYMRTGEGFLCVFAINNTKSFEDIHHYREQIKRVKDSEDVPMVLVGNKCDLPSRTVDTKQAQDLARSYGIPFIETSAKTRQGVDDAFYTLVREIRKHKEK
The description is as above.

The target of the next test is T5, KRas^WT (Homo sapiens, UniProt P01116).
T5 construct: […]; biotin (biotinylated); purchased Accelegan Inc
T5 sequence (P01116 1-169 isoform P01116-2): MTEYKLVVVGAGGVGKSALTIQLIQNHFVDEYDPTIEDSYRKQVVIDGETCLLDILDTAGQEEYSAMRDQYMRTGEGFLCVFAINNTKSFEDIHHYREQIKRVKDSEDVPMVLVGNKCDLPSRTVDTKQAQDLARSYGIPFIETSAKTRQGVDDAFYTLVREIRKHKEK
The test is described as above.

The next test concerns the target T6, KRas^G12S (Homo sapiens, UniProt P01116, G12S).
T6 construct: […]; biotin (biotinylated); purchased Accelegan Inc
The description is as above.

The next test addresses KRas^G12C (Homo sapiens, UniProt P01116, G12C). As to the kind of experiment: biochemical.
The target in a further test is KRas^Q61H (Homo sapiens, UniProt P01116, Q61H). Kind of test: biochemical.
Chain of KRas^Q61H (P01116 1-169 isoform P01116-2 Q61H): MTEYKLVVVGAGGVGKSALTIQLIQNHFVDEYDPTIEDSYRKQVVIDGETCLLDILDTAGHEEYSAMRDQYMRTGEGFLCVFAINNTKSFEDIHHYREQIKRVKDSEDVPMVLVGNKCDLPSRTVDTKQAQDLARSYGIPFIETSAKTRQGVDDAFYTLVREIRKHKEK
A further test has as its target KRas^G13D (Homo sapiens, UniProt P01116, G13D). As to the kind of experiment: biochemical.
The next test deals with H727 cells, pERK. Kind of test: Inhibition of KRas phosphorylation of ERK (Cisbio HTRF Advanced pERK assay). The format is cell-based. To be noted: Homo sapiens, NCI-H727, 3 h, read-out: Inhibition (HTRF IC50 nM) of KRas-mediated Phosphorylation of ERK, H727. In outline: as §1
The subject of the next test is H460 cells, pERK. The description is as above. The format is cell-based. The settings on record: Homo sapiens, NCI-H460, 3 hrs, read-out: Inhibition (HTRF IC50 nM) of KRas-mediated Phosphorylation of ERK, H460. The gist of the method:
as §1

In the next test the test system is ASPC1 cells, pERK. The description is as above. The format is cell-based. The settings on record: Homo sapiens, ASPC1, 3 h, AsPC-1 cells, read-out: Inhibition (HTRF IC50 nM) of KRas-mediated Phosphorylation of ERK, AsPC-1. In outline:
as §1

Another test has as its system HCT116 cells, pERK. The description is as above. The settings on record: Homo sapiens, HCT-116, 3 hrs, read-out: Inhibition (HTRF IC50 nM) of KRas-mediated Phosphorylation of ERK, HCT116. The format is cell-based. In outline: as §1

T1 sequence (P01116 1-169 isoform P01116-2 G12R): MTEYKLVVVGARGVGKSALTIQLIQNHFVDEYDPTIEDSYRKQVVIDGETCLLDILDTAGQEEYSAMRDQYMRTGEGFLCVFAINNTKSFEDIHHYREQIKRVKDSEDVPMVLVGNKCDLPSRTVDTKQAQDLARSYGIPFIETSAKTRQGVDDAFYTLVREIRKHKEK
T2 sequence (P01116 1-169 isoform P01116-2 G12D): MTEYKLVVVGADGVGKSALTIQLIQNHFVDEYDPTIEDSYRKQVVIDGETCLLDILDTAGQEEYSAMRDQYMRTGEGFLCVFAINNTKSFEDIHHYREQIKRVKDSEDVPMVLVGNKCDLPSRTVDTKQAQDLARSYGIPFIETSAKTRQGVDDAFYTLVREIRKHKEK
Chain of KRas^G12C (P01116 1-169 isoform P01116-2 G12C): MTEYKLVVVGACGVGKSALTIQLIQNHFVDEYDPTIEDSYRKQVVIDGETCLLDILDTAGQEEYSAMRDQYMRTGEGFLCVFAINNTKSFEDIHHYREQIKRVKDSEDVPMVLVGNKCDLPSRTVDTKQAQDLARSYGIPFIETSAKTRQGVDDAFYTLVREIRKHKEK
Chain of KRas^G13D (P01116 1-169 isoform P01116-2 G13D): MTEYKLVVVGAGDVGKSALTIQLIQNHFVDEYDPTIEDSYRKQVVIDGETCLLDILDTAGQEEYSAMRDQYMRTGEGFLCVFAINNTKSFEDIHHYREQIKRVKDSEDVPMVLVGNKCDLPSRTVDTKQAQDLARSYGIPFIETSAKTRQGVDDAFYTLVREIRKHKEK
T6 sequence (P01116 1-169 isoform P01116-2 G12S): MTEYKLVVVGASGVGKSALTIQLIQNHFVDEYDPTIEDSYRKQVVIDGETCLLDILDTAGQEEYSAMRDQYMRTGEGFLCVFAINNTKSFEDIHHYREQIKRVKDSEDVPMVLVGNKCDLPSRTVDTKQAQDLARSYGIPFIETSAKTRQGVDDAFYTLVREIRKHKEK
Description for KRas^G12A: (§6) The ability of a compound to bind to KRas was measured using a TR-FRET displacement assay. […] After a 60-minute incubation at room temperature, the reaction was measured using a BMG LABTECH CLARIO star Plus via TR-FRET. […] The POC values were fit to a 4-parameter IC50 equation and the IC50 value reported.
Description for KRas^G12C: as §6
Description for KRas^G12D: as §6
Description for KRas^G12R: as §6
Description for KRas^G12S: as §6
Description for KRas^G12V: as §6
Description for KRas^G13D: as §6
Description for KRas^Q61H: as §6
Description for KRas^WT: as §6

A word on the IC50: it is the concentration at which inhibition is half-maximal. With `CCc1c(F)ccc2cc(O)cc(N3CCc4c(nc(OC[C@@]56CCCN5C[C@H](F)C6)nc4N4CCCn5nc(N)cc5C4)C3)c12` [Example 18, 4-(4-(2-amino-7,8-dihydro-4H-pyrazolo[1,5-a][1,4]diazepin-5(6H)-yl)-2-(((2R,7aS)-2-fluorohexahydro-1H-pyrrolizin-7a-yl)methoxy)-5,6-dihydropyrido[3,4-d]pyrimidin-7(8H)-yl)-5-ethyl-6-fluoronaphthalen-2-ol], the IC50 at KRas^G12R was not above 2 nM; on KRas^G12D, not above 2 nM; with PSN1 cells, pERK it was not below 10000 nM; in the test on MKN1 cells, pERK it was 22 nM; in test [1], 317 nM; in [2], 503 nM. The IC50 in test [3] was 182 nM; at KRas^G12V, not above 2 nM.
With `CCc1c(F)ccc2cc(O)cc(N3CCc4c(nc(OC[C@@]56CCCN5C[C@H](F)C6)nc4N4CCCC5(CC(=O)N5)C4)C3)c12` (stereo partly drawn) [Example 21, 6-(7-(8-ethyl-7-fluoro-3-hydroxynaphthalen-1-yl)-2-(((2R,7aS)-2-fluorohexahydro-1H-pyrrolizin-7a-yl)methoxy)-5,6,7,8-tetrahydropyrido[3,4-d]pyrimidin-4-yl)-1,6-diazaspiro[3.5]nonan-2-one], the half-maximal inhibitory concentration (IC50) was not above 2 nM on KRas^G12R; not above 2 nM on KRas^G12D; 646 nM in the test with PSN1 cells, pERK; 9 nM in the test on MKN1 cells, pERK; 202 nM in [1]; 466 nM in test [2]. The IC50 in [3] was 204 nM; at KRas^G12V, not above 2 nM.
As for `CCc1c(F)ccc2cc(O)cc(N3CCc4c(nc(OC[C@@]56CCCN5C[C@H](F)C6)nc4N4CCC(c5[nH]ncc5N)C4)C3)c12` (stereo partly drawn) [Example 26, 4-(4-(3-(4-amino-1H-pyrazol-5-yl)pyrrolidin-1-yl)-2-(((2R,7aS)-2-fluorohexahydro-1H-pyrrolizin-7a-yl)methoxy)-5,6-dihydropyrido[3,4-d]pyrimidin-7(8H)-yl)-5-ethyl-6-fluoronaphthalen-2-ol], the IC50 at KRas^G12A was determined as 7 nM; at KRas^WT, 24 nM; at KRas^G12S, 10 nM; on KRas^G12R it was 5 nM; at KRas^G12D, 110 nM; in [1] it was 3260 nM. Further, the concentration for half-maximal inhibition (IC50) was found to be 3120 nM in test [2]; 10000 nM in [3]; 7 nM on KRas^G12C; 4 nM at KRas^G12V; 22 nM at KRas^Q61H; 34 nM against KRas^G13D.
In the case of `C[C@@]1(O)CCCN(c2nc(OC[C@@]34CCCN3C[C@H](F)C4)nc3c2CCN(c2cc(O)cc4ccc(F)c(Cl)c24)C3)C1` [Example 68, (R)-1-(7-(8-chloro-7-fluoro-3-hydroxynaphthalen-1-yl)-2-(((2R,7aS)-2-fluorohexahydro-1H-pyrrolizin-7a-yl)methoxy)-5,6,7,8-tetrahydropyrido[3,4-d]pyrimidin-4-yl)-3-methylpiperidin-3-ol], the half-maximal inhibitory concentration (IC50) on KRas^G12R is 3 nM; at KRas^G12D it was not above 2 nM; with H727 cells, pERK it was 423 nM; in the test with PSN1 cells, pERK, 2260 nM; with H460 cells, pERK, 421 nM; with MKN1 cells, pERK it was 71 nM. Besides, the IC50 with ASPC1 cells, pERK was 112 nM; in the test with HCT116 cells, pERK it was 1170 nM; at KRas^G12V, not above 2 nM.
Take `CCc1c(F)ccc2cc(O)cc(N3CCc4c(nc(OC[C@@]56CCCN5C[C@H](F)C6)nc4N4CCCC5(CNC(=O)C5)C4)C3)c12` (stereo partly drawn) [Example 197, 7-(7-(8-ethyl-7-fluoro-3-hydroxynaphthalen-1-yl)-2-(((2R,7aS)-2-fluorohexahydro-1H-pyrrolizin-7a-yl)methoxy)-5,6,7,8-tetrahydropyrido[3,4-d]pyrimidin-4-yl)-2,7-diazaspiro[4.5]decan-3-one]: the concentration for half-maximal inhibition (IC50) is not above 2 nM on KRas^G12R; not above 2 nM at KRas^G12D; 313 nM in the test on H727 cells, pERK; 1690 nM in the test with PSN1 cells, pERK; 285 nM in the test with H460 cells, pERK; 12 nM in the test on MKN1 cells, pERK. Further, the IC50 was 136 nM in the test on ASPC1 cells, pERK; 499 nM with HCT116 cells, pERK; not above 2 nM on KRas^G12V.
As to `Nc1cc2n(n1)CCCN(c1nc(OC[C@@]34CCCN3C[C@H](F)C4)nc3c1CCN(c1cc(O)cc4ccc(F)c(Br)c14)C3)C2` [Example 212, 4-(4-(2-amino-7,8-dihydro-4H-pyrazolo[1,5-a][1,4]diazepin-5(6H)-yl)-2-(((2R,7aS)-2-fluorohexahydro-1H-pyrrolizin-7a-yl)methoxy)-5,6-dihydropyrido[3,4-d]pyrimidin-7(8H)-yl)-5-bromo-6-fluoronaphthalen-2-ol], the IC50 on KRas^G12R was not above 2 nM; at KRas^G12D, not above 2 nM; with H727 cells, pERK it was 268 nM; with PSN1 cells, pERK it was not below 10000 nM; in the test on H460 cells, pERK, 545 nM; in the test on MKN1 cells, pERK, 61 nM. For the same compound, the half-maximal inhibitory concentration (IC50) in the test with ASPC1 cells, pERK is 111 nM; in the test on HCT116 cells, pERK, 1110 nM; at KRas^G12V, not above 2 nM.
For `C[C@@]1(O)CCCN(c2nc(OC[C@@]34CCCN3C[C@H](F)C4)nc3c2CCN(c2cc(O)cc4ccc(F)c(Br)c24)C3)C1` [Example 222, (R)-1-(7-(8-bromo-7-fluoro-3-hydroxynaphthalen-1-yl)-2-(((2R,7aS)-2-fluorotetrahydro-1H-pyrrolizin-7a(5H)-yl)methoxy)-5,6,7,8-tetrahydropyrido[3,4-d]pyrimidin-4-yl)-3-methylpiperidin-3-ol], the IC50 on KRas^G12R was not above 2 nM; on KRas^G12D, not above 2 nM; in the test on H727 cells, pERK, 530 nM; in the test on PSN1 cells, pERK it was 2820 nM; in the test on H460 cells, pERK, 352 nM; in the test on MKN1 cells, pERK it was 37 nM. Besides, the IC50 was 179 nM in the test with ASPC1 cells, pERK; 672 nM in the test on HCT116 cells, pERK; not above 2 nM on KRas^G12V.
